# Tests used:
# [1] = system: G-G mismatch base pair in 52-mer duplex DNA; assay: DNase I footprinting titration of 52-mer duplex DNA, G-G mismatch site; type: binding
# Experimental: (§1) A 5′-^32P-labeled 52-mer duplex DNA having a GC base pair, GA mismatch base pair and a GG mismatch base pair in the duplex DNA was prepared. The partial listing of the corresponding moieties is shown below.
# (§2) The inventors have analyzed the duplex DNA through DNase I (DNA hydrolase) footprinting titration for the sites where the DNA cleavage by DNase I was inhibited in the presence of a varying concentration of the compound of formula (III).
# (§3) The relationship between the cleavage band intensity and the naphthyridine concentration in FIG. 1 is plotted to give a graph as in FIG. 2. The vertical axis of FIG. 2 indicates the cleavage inhibition ratio derived from the cleavage band intensity. […] The horizontal axis of FIG. 2 indicates the concentration (M) of the compound of formula (III) added to the test system. In FIG. 2, the closed circles (●) indicate the G-G mismatch site, and the closed triangles (▴) indicate the G-A mismatch site.
# (§4) ^32P-5′-end-labeled 52-mer DNA was hybridized into a duplex DNA with G-G and G-A mismatches (see the right side of FIG. 1).
# (§5) A varying concentration of the compound obtained in Example 1 was added to the duplex DNA, and the DNA was analyzed through DNase I footprinting titration.
# (§6) Concretely, the duplex DNA (<4 nM strand concentration) was incubated at 4° C. for 12 hours along with a varying concentration of the compound obtained in Example 1, in a tris-HCl buffer (10 mM, pH 7.6) that contains NaCl (100 mM) and MgCl2(5 mM). To this was added 0.2 U DNaseI (DNA hydrolase), and this was further incubated at 25° C. for 8 minutes. Next, this was precipitated in ethanol to recover the DNA, which was then subjected to electrophoresis with a gel that contains 12% polyacrylamide and 7 M urea.
# [2] = system: G-A mismatch base pair in 52-mer duplex DNA; assay: DNase I footprinting titration of 52-mer duplex DNA, G-A mismatch site; type: binding; design: effect of inhibiting G-A mismatch site cleavage: dose or concentration left out as unconfirmed
# Experimental: as §1, §2, §3, §4, §5, §6
# [3] = system: normal G-C base pair in 52-mer duplex DNA; assay: DNase I footprinting titration of 52-mer duplex DNA, normal G-C site; type: binding; conditions: concentration 0 to 500 μM, FIG. 1
# Experimental: as §1, §2
# In FIG. 1, the concentration of the compound of formula (III) varies from 0 to 500 μM from the left to the right. The sites cleaved with the DNase I (DNA hydrolase) are seen black, while those protected from cleavage with the DNase I are seen white.
# as §4, §5
# Concretely, the duplex DNA (<4 nM strand concentration) was incubated at 4° C. for 12 hours along with a varying concentration of the compound obtained in Example 1, in a tris-HCl buffer (10 mM, pH 7.6) that contains NaCl (100 mM) and MgCl2(5 mM). To this was added 0.2 U DNaseI (DNA hydrolase), and this was further incubated at 25° C. for 8 minutes. […]
# [4] = system: single-stranded human telomere sequence DNA (22-mer 5'-AGGGTTAGGGTTAGGGTTAGGG3'); assay: Binding titration with single-stranded human telomere sequence DNA (22-mer, FIG. 4)
# Experimental: Samples of single-stranded human telomere sequence DNA were tested for the inhibition of DNA cleavage by DNase I (DNA hydrolase) through footprinting titration in the presence of a varying concentration of the compound of formula (III) (this is hereinafter referred to as naphthyridine dimer or simply as ND).
# The test result in FIG. 4 is similar to that in FIG. 2. The vertical axis of FIG. 4 indicates the cleavage inhibition ratio derived from the cleavage band intensity. […] The horizontal axis of FIG. 4 indicates the ratio of the G-G mismatch concentration to the concentration (M) of the compound of formula (III) added to the test system, [GG]/[ND] in which ND means the compound of formula (III).
# A solution of a 22-mer oligonucleotide having the following base sequence: • 5′-[…]3′ (SEQ ID NO: 9) in a sodium cacodylate buffer (10 mM, pH 7.0, NaCl 100mM) was heated at 70° C. for 5 minutes, and then gradually cooled so that the oligomer could form a quadraplex structure (see Structure, 263, 1 (1993)). A varying concentration of a naphthyridine dimer was dropwise added to the resulting solution, and the naphthyridine dimer-binding amount was obtained through 360 nm absorptiometry.
# [5] = 52-mer duplex DNA, DNase I footprinting titration
structure (smiles),measurement,setting,value
"Cc1ccc2ccc(NC(=O)CCNCCC(=O)Nc3ccc4ccc(C)nc4n3)nc2n1 [compound of formula (III), dinaphthyridinamide]",association constant to the G-G mismatch (Ka(GGmis)),[1]; [5],1.13e+07 M⁻¹
same,concentration at which G-G mismatch site cleavage by DNase I is almost completely inhibited,[1]; FIG. 2,about 10^−5 M
same,ratio of the association constants (Ka(GGmis))/(Ka(GAmis)),"[1]; G-G versus G-A mismatch, 52-mer duplex DNA",696
same,effect of inhibiting G-A mismatch site cleavage,[2],about 90%
same,association constant to the G-A mismatch (Ka(GAmis)),[2]; [5],16300 M⁻¹
same,concentration at which compound becomes effective for inhibiting cleavage of the G-A mismatch site,[2]; FIG. 2,about 10^−6 M
same,protection of normal G-C base pair from DNase I cleavage,[3],cleaved by DNase I
same,association constant to the G-G mismatch (Ka(GGmis)) in human telomere sequence,"[4]; 22-mer, sodium cacodylate buffer pH 7.0, NaCl 100 mM, Scatchard plot",420000 M⁻¹
same,concentration ratio [GG]/[ND] at which G-G mismatch site cleavage is almost completely inhibited,[4]; FIG. 4,about 3
same,concentration ratio [GG]/[ND] at which compound is already effective for inhibiting cleavage of the G-G mismatch site,"[4]; FIG. 4, relatively low concentration",0.5
